These results are taken from US4315933A, “Antibacterial amide compounds and pharmaceutical compositions containing the same” (Warner-Lambert Company, priority 1980, dated 1982).

≈ marks a conversion by molar mass, not a printed value.

Common to all, as to assay: Minimal Inhibitory Concentration, in vitro
Holding throughout (assay type): cell-based

Experiment [1] has as its system Pseudomonas aeruginosa #28.
The next experiment concerns Entero. cloacae. The settings on record: for MIC: Enterobacter cloacae.
For the next experiment, the system named is Serr. marces.
The next experiment concerns Kleb. pneu.
The next experiment relates to Staph. aureus S18713. To be noted: for MIC: Staphylococcus aureus.

Broadly, the MIC is the least concentration at which growth counts as inhibited. The low end stands for greater potency, the high end for weaker potency. On to `CC1(C)S[C@@H]2[C@H](NC(=O)[C@H](NC(=O)c3cnc(-c4ccc(NC(=O)CC#N)cc4)nc3O)c3ccc(O)cc3)C(=O)N2[C@H]1C(=O)O` [Example 4, N-[2-[4-(Cyanoacetylamino)phenyl]-4-hydroxy-5-pyrimidinylcarbonyl]amoxicillin], for which the MIC is 0.8 mg/L (≈ 1.24 µM) in experiment [1]; 3.1 mg/L (≈ 4.8 µM) in the experiment on Entero. cloacae; 3.1 mg/L (≈ 4.8 µM) in the experiment with Serr. marces.; 25 mg/L (≈ 38.7 µM) against Kleb. pneu.; greater than 50 mg/L in the experiment on Staph. aureus S18713.
Regarding `COCC(=O)Nc1ccc(-c2ncc(C(=O)N[C@@H](C(=O)N[C@@H]3C(=O)N4[C@@H]3SC(C)(C)[C@@H]4C(=O)O)c3ccccc3)c(O)n2)cc1` [Example 5, N-[2-[4-(Methoxyacetylamino)phenyl]-4-hydroxy-5-pyrimidinylcarbonyl]ampicillin], the MIC in experiment [1] came out at 3.1 mg/L (≈ 4.88 µM); with Entero. cloacae, 12.5 mg/L (≈ 19.7 µM); against Serr. marces. it was 100 mg/L (≈ 158 µM); in the experiment with Kleb. pneu., 25 mg/L (≈ 39.4 µM); against Staph. aureus S18713, 100 mg/L (≈ 158 µM).
For `CCNC(=O)Nc1ccc(-c2ncc(C(=O)N[C@@H](C(=O)N[C@@H]3C(=O)N4[C@@H]3SC(C)(C)[C@@H]4C(=O)O)c3ccc(O)cc3)c(O)n2)cc1` [Example 8, N-[2-[4-(N-Ethylcarbamoylamino)phenyl]-4-hydroxy-5-pyrimidinylcarbonyl]amoxicillin], the MIC in experiment [1] is 0.8 mg/L (≈ 1.23 µM); in the experiment on Entero. cloacae, 6.3 mg/L (≈ 9.7 µM); against Serr. marces., 3.1 mg/L (≈ 4.77 µM); with Kleb. pneu., 12.5 mg/L (≈ 19.2 µM); in the experiment on Staph. aureus S18713 it was greater than 50 mg/L.
On to “N-[2-[4-(Acetylamino)phenyl]-4-hydroxy-5-pyrimidinylcarbonyl]amoxicillin [Example 2]”, for which the results for the “Minimal Inhibitory Concentration” value (in experiment [1]; in the experiment with Serr. marces.; in the experiment with Kleb. pneu.) were 1.6 µg/mL, 200 µg/mL and 6.3 µg/mL, respectively.
For “N-[2-[4-(Dichloroacetylamino)phenyl]-4-hydroxy-5-pyrimidinylcarbonyl]amoxicillin [Example 1]”, the “Minimal Inhibitory Concentration” value was 1.6 µg/mL in experiment [1]; 1.6 µg/mL in the experiment with Entero. cloacae; 200 µg/mL in the experiment with Serr. marces.; 12.5 µg/mL in the experiment with Kleb. pneu.; 50 µg/mL in the experiment with Staph. aureus S18713.
On to “N-[2-[4-(Trifluoroacetylamino)phenyl]-4-hydroxy-5-pyrimidinylcarbonyl]amoxicillin [Example 3]”, for which the “Minimal Inhibitory Concentration” value is 0.8 µg/mL in experiment [1]; 6.3 µg/mL with Entero. cloacae; 3.1 µg/mL in the experiment on Serr. marces.; 12.5 µg/mL with Kleb. pneu.; greater than 50 µg/mL in the experiment with Staph. aureus S18713.
For “N-[2-[4-[(2,2,2-Trifluoroethyl)thio]acetylamino]phenyl]-4-hydroxy-5-pyrimidinylcarbonyl]amoxicillin [Example 7]”, the “Minimal Inhibitory Concentration” value in the experiment on Serr. marces. is 200 µg/mL; with Kleb. pneu., 50 µg/mL; with Staph. aureus S18713 it was 50 µg/mL.
For the compound “N-[2-[4-[(2-Ethoxy-1,2-dioxoethyl)amino]phenyl]-4-hydroxy-5-pyrimidinylcarbonyl]amoxicillin [Example 6]”, the “Minimal Inhibitory Concentration” value in experiment [1] is 1.6 µg/mL; in the experiment with Entero. cloacae, 12,5 μg/ml; in the experiment with Kleb. pneu., 25 µg/mL.
